Entries after “also recorded” stand apart in the source; their conditions may differ.
Assays:
[1] = system: murine model of schizophrenia; experiment: Open-field test (ambulation, rearing, grooming) in the PCP mouse model
Experimental: Mice were assessed for hyperactivity behavior on postnatal day 16 (FIG. 2). Mice were placed in the center of a transparent glass cube cage 30×40 X31 cm divided into squares of 7.5×7.5 cm. The number of squares and rearing activity were counted for 8 min.
Mice were assessed for hyperactivity behavior on postnatal day 64-66. Mice were placed in the center of a transparent glass cube cage 30×40 X31 cm divided into squares of 7.5×7.5 cm. The number of squares and rearing activity were counted for 8 min.

[2] = system: murine model of schizophrenia; experiment: Prepulse inhibition (PPI) of the startle reflex in the PCP mouse model; type: in vivo, mice
Experimental: In this experimental model, a weak stimulus (74-90 dB tone) inhibited the subsequent response to a strong stimulus (120 dB tone). Reduced prepulse inhibition of the startle reflex (PPI) was taken as an index of the positive symptoms of schizophrenia (Josselyn and Vaccarino, 1998).
PPI was assessed similarly to the method described by Varty et al. In the employed model, mice were placed in a startle chamber and allowed to acclimate for 5 min. A loudspeaker produced a 65 dB background white noise or the various acoustic pre-pulse stimuli (dB): 74, 78, 82, 86, and 90 (20 ms). A 120 dB (40 ms) stimulus was given first to induce a response to startle. The response of the mouse was transduced and stored by a computer. Each test session lasted for 11 min and consisted of 5 presentations of each of the trial types presented in random order and separated by 15 second intervals. The amount of prepulse inhibition was calculated as % PPI=[1−(startle response for prepulse+pulse)/(startle response for pulse alone)]×100.
The % PPI indicates of level of disruption of the sensorimotor gating system in schizophrenia but also serves as an indicator of memory function. The % PPI after administration of PCP and treatment of BCP in the PPI test also serve as an index of memory function, further supporting the function of the sensorimotor system.

[3] = system: murine model of schizophrenia; experiment: Forced-swimming test in the PCP mouse model; type: in vivo, mice; conditions: PND 83; postnatal PCP 5 mg/kg; oral BCP 10 mg/kg twice a week, PND 43-62
Experimental: (§1) BCP was diluted in canola oil. BCP (10 mg/kg diluted in canola oil) was administered to adolescent mice (PND 43-62) by gavage twice a week (on Sunday and Wednesday) for 3 weeks, a total of 6 gavages. Control group and PCP-induced group received by gavage the oil vehicle.
Training was conducted for 6 min a day before the test. Each mouse was placed into a transparent glass cylinder filled with fresh water at 25° C. On the test day, the total duration/frequency of immobility and climbing was counted every 2 minutes for 6 minutes. An increased immobility is an index of learning and habituation, therefore a positive behavioral adaptation with a stressful condition.

[4] = system: murine model of schizophrenia; experiment: Social interaction test in a novel environment, PCP mouse model; type: in vivo, mice; conditions: PND 88-89; postnatal PCP 5 mg/kg; oral BCP 10 mg/kg twice a week, PND 43-62
Experimental: as §1
Each mouse was placed in a novel cage together with a nonaggressive intruder mouse of the same species, same sex and a similar age. The interaction between the two mice was recorded for 10 minutes with EthoVision software (Noldus). Social interaction was defined by contact between the mice (tracking nose point). Reduced duration of contact behavior indicates on impairment in social interaction.

[5] = Body weight in the neonatal PCP mouse model of schizophrenia
[6] = target: CYP2D6 (Homo sapiens, UniProt P10635); experiment: CYP450 enzymatic metabolism in human liver microsomes
Sequence of CYP2D6 (P10635 whole entry): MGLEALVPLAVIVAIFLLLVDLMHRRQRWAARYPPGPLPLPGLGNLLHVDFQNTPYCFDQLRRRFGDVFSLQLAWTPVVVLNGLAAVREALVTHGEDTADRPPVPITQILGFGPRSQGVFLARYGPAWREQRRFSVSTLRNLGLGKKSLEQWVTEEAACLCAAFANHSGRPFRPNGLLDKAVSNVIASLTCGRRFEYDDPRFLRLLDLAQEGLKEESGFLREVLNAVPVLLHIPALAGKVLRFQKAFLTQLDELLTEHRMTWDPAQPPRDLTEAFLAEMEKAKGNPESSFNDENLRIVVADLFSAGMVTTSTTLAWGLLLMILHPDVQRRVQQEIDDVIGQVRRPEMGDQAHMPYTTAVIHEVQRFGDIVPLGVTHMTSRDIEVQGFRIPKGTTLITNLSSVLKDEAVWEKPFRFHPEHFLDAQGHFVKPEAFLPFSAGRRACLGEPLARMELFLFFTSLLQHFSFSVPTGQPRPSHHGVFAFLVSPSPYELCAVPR
Experimental: CYP450 dependent activities were determined using a known substrate. […] A known inhibitor, such as quinidine, tested at a single concentration 3.00 μM was included as positive control. Incubation mixture containing human liver microsomes (0.1 mg/mL), substrate (5 μM) and standard inhibitor or test compound were warmed at 37 C for 10 minutes. Reactions were initiated by addition of the NADPH (1 mM) and the mixture was incubated for 20 minutes at 37° C. water bath. The organic solvent in the reaction mixture was DMSO. After incubation, ice cold acetonitrile was added to terminate the reaction. Generation of metabolite from the substrate reactions was determined by LC-MS/MS and assessed based on peak area ratios of analyte/IS. Mean was used to calculate the extent of inhibition (expressed as % of control activity).

[7] = air exposed, after 5 weeks; cited from earlier work
[8] = system: murine model of schizophrenia; experiment: PhenoTyper cage behaviour in the PCP mouse model; type: in vivo, mice; conditions: BCP 5 mg/kg PND 43-61
[9] = PND 17, BCP 10 mg/kg 1 h after PCP, ethanol-based vehicle
[10] = PND 35-37, postnatal BCP 10 mg/kg 1 h after PCP
[11] = PND 104, postnatal PCP, BCP 5 mg/kg PND 43-61
[12] = PND 68, no PCP, BCP 5 mg/kg PND 43-61
[13] = PND 68, postnatal PCP, BCP 5 mg/kg PND 43-61
[14] = PND 106, postnatal PCP, BCP 5 mg/kg PND 43-61
[15] = age 8 weeks, postnatal BCP 10 mg/kg 1 h after PCP
[16] = PND 91, females and males, postnatal PCP

Substance: trans-(1R,9S)-8-methylene-4,11,11trimethylbicyclo[7.2.0]undec-4-ene [BCP]
- open-field rearing and exploration ([1]; PND 17, male mice, BCP 10 mg/kg 1 h after each PCP 5 mg/kg injection (Cremophor EL:DMSO:saline)): reversed the effects of PCP on rearing and exploration
- open-field ambulation and rearing ([1]; PND 17, males, BCP 10 mg/kg 1 h after PCP, DMSO-based carrier): completely reversed the effects of PCP on ambulation
- open-field ambulation and rearing, females [1, 9]: reversed a proportion of the effects of PCP on ambulation and rearing behavior of female mice
- open-field locomotor activity, males [1, 9]: appeared to be less sensitive to the treatment of PCP or PCP+BCP
- open-field rearing and exploration [1, 9]: reversed the effects of PCP on rearing and exploration
- open-field locomotor activity (ambulation), males [1, 10]: reduced locomotor activity; also recorded: significantly reversed the effect of PCP in males
- open-field rearing and exploration, females [1, 10]: no differences in rearing and exploration behaviors were seen between the different groups
- open-field rearing, males [1, 10]: significantly reduced rearing behavior as compared to vehicle and PCP-treated groups
- open-field rearing ([1]; PND 63, females and males, postnatal PCP, BCP 5 mg/kg injected twice a week PND 43-61): reversed the effect of PCP on rearing in both females and males
- open-field ambulation ([1]; PND 63, male and female, postnatal PCP, BCP 5 mg/kg injected twice a week PND 43-61): significantly reversed the effect of postnatal treatment of PCP on ambulation in male and female mice at PND 63
- open-field exploration compared with saline-treated mice ([1]; PND 63, BCP 5 mg/kg injected twice a week PND 43-61): significantly inhibited the exploration of mice compared with saline-treated mice
- open-field exploratory behavior, females ([1]; PND 104 (last BCP treatment PND 61), postnatal PCP, BCP 5 mg/kg PND 43-61): relapse in exploratory behavior was evident
- self-grooming (total, without stimuli) ([1]; PND 104, females or males, postnatal PCP, BCP 5 mg/kg PND 43-61): did not reverse the effect of PCP on self-grooming; also recorded: did not reverse the effect of PCT on grooming at PND104
- open-field rearing (and exploration), males [1, 11]: still significantly higher than that of PCP-treated mice with no BCP treatment; also recorded: improved exploration and rearing behaviors of male PCP treated mice at PND 104
- activity in the open field test, female mice ([1]; postnatal PCP 5 mg/kg, BCP 10 mg/kg in canola oil by gavage twice a week, PND 43-62): reversed the effect of 5 mg/kg PCP on activity of female mice in the open field test
- pre-pulse inhibition in saline-treated mice [2, 12]: no substantial effect on saline-treated mice
- response to pre-pulse tones in saline-treated mice [2, 12]: no effect on saline-treated mice
- response to pre-pulse tones [2, 13]: significantly reversed the effect of PCP on response to pre-pulse tones; also recorded: reversed the effect of PCP on the response to tone
- startle response at the end of the PPI test [2, 13]: did not affect the response to startle at the end of the PPI test
- startle response, females [2, 13]: significantly reversed the effect of PCP on startle response in females
- startle response, males [2, 13]: no difference in the response to the startle stimuli between groups
- pre-pulse inhibition (% PPI) ([2]; PND 68, postnatal PCP, BCP 5 mg/kg injected twice a week PND 43-61): significantly reversed the effect of PCP on pre-pulse inhibition; also recorded: reversed the effect of PCP on PPI
- % pre-pulse inhibition (PPI) [2, 14]: reversed the effect of PCP on the % pre-pulse inhibition (PPI); also recorded: reversed the effect of PCP on attention at PND106 (PPI test)
- response to the startle stimuli (120 dB) [2, 14]: no difference in the response to the startle stimuli (120 dB) between groups
- response to tones [2, 14]: reversed the effect of PCP on the response to tones
- response to startle stimuli ([2]; age 8 weeks, males and females, postnatal BCP 10 mg/kg 1 h after PCP): not significantly different between groups
- % prepulse inhibition, females [2, 15]: No significant difference
- % prepulse inhibition, males [2, 15]: reversed this effect; also recorded: significantly reversed the effect of PCP on the sensorimotor-gate in males
- duration of immobility in the forced swim test, male mice [3]: reversed the effect of 5 mg/kg PCP on the duration of immobility of male mice in the forced swim test; also recorded: reversed the effect of PCP on mice in the open field test (29A) and in the forced swim test
- social interaction, male mice [4]: reversed the effect of 5 mg/kg PCP on social interaction of male mice in the social interaction test
- body weight at PND 17 ([5]; BCP 10 mg/kg 1 h after PCP, ethanol-based vehicle, PCP+BCP vs PCP): no significant difference between groups treated with PCP with or without BCP
- body weight ([5]; BCP 10 mg/kg 1 h after PCP, postnatal, DMSO-based vehicle): completely reversed the effect of PCP on body weight
- body weight ([5]; BCP 10 mg/kg injected 1 h after each PCP 5 mg/kg dose, PND 3-16, Cremophor EL:ethanol:saline vehicle, weight PND 3-17): significantly reversed the inhibitory effect of PCP on body weight; also recorded: reversed the reduction in body weight during the first week of life; also recorded: did not restore the weight completely
- effect on PCP-induced reduction of body weight, males [5, 9]: appeared to be more prominent
- body weight, females [5, 10]: significantly reversed the effect of PCP on female body weight
- body weight, males [5, 10]: no significant difference in male body weight between the groups
- body weight [5, 11]: did not increase body weight in females and males, rather reduced body weight of PCP+BCP treated group
- body weight of adolescent mice ([5]; postnatal PCP, BCP 5 mg/kg injected twice a week PND 43-61 (DMSO:Cremophor EL:saline)): did not affect body weight of adolescent mice
- body weight, male mice ([5]; postnatal day 83, oral BCP 10 mg/kg twice a week, PND 43-62): did not affect body weight of male mice at postnatal day 83; also recorded: did not affect their body weight
- risperidone-induced inhibition of CYP2D6 in the presence of BCP ([6]; BCP combined with risperidone at a fixed concentration equivalent to IC50, human liver microsomes): significantly reduced the risperidone-induced inhibition of CYP2D6; also recorded: blocked the effect of risperidone and restored the activity of CYP2D6 enzyme
- inhibitory effect on CYP2D6 ([6]; human liver microsomes): 0-20 % inhibition
- inhibition of CYP2D6 enzymatic activity ([6]; human liver microsomes 0.1 mg/mL, 20 min, 37 C): slightly inhibited CYP2D6
- original compound consumed by autoxidation [7]: ~50%
- frequency of entries to the wheel [8, 16]: reversed the effects of PCP on the frequency of entries to the wheel in the Phenotyper cage both in females and males
- time spent in the Hidden Zone [8, 16]: reversed the effects of PCP on the time spend in the Hidden Zone of PhenoTyper cage in females and males; also recorded: reversed the effects of PCP on the time spent in the hidden zone
- time spent at the drinking zone ([8]; PND 91, compared with PCP-treated group): appeared to reduce the time spend at the drinking zone
- frequency of entries to the Hidden Zone, males ([8]; PND 91, postnatal PCP): reversed the effect of PCP in males
- time spent in the food zone ([8]; PND 91, postnatal PCP): did not affect the time spend in the food zone
- frequency of entries to the Wheel Zone ([8]; PND 105, postnatal PCP): appeared to reduce the effect of PCP on the frequency of entries to the Wheel Zone
- frequency of entries to the hidden zone ([8]; PND 105, postnatal PCP): reversed the effects of PCP on the frequency of entries to the hidden zone; also recorded: reversed the effect of PCP on frequency of entries to hidden zone
- time spent at the hidden zone ([8]; PND 105, postnatal PCP): reversed the effects of PCP on the time spend at the hidden zone; also recorded: reversed the effect of PCP on time spent at the hidden zone
- time spent in the wheel zone ([8]; PND 105, postnatal PCP): showed a trend to reverse the effect of PCP on the time spend in the wheel; also recorded: not the time spent in the wheel zone

— patent publication US20190070124A1, “COMPOSITIONS OF CB2 RECEPTOR SELECTIVE AGONISTS FOR TREATMENT OF MENTAL DISORDERS” (priority 2016, published 2019)
